The text below walks through data of US9528993B2, “Agents and methods related to screening for resistance to DR5 and reducing resistance to DR5 agonists” (The UAB Research Foundation, priority 2005, dated 2016).

Data set [1] has as its system GSK-3. Particulars: cited from earlier work.
The subject of data set [2] is human breast cancer cell line, MDA-231. The data set can be described thus: Cytotoxicity analysis (ATPLITE cell viability), MDA-231. Particulars: for TRA-8-mediated apoptosis of induced resistant cells in presence of chemotherapeutic agent: MDA-231 resistant cells, 0.1 μM taxol, 1 μM Adriamycin, 100 μM cisplatin or 5 μM BisVIII. The class given is cell-based. The procedure:
(§1) Cells (1,000 cells per well) were seeded into 96-well plate in triplicate with eight concentrations (double serial dilutions from 1000 ng/ml) of TRA-8, 2E12, or TRAIL. Cell viability was determined after overnight culture using ATPLITE assay according to the manufacture's instructions (Packard Instruments, Meriden, Conn.). The results are presented as the precentage of viable cells in treated wells compared to medium control wells.
(§2) Cells (5×10^5/ml) were incubated with a starting dose of 1 ng/ml TRA-8 for two days. Cells were split with fresh medium and incubated with a double dose of TRA-8 every two days until TRA-8 dose reached 2,000 ng/ml. At each treatment cycle, the cell viability of non-induced (parental) and induced cells treated with an inducing dose of TRA-8 was determined by ATPLITE assay.
For orientation: ATP-based viability assays read luminescence as a measure of living cells.

Data set [3] relates to human ovarian cancer cell line, UL-3C. The data set can be described thus: Cytotoxicity analysis (ATPLITE cell viability), UL-3C. Type of data set: cell-based. Particulars: for TRA-8-mediated apoptosis of induced resistant cells in presence of chemotherapeutic agent: UL-3C resistant cells, 0.1 μM taxol, 1 μM Adriamycin, 100 μM cisplatin or 5 μM BisVIII. On the procedure: as §1, §2

For a further data set, the system named is panel of tumor cells. Briefly: TRA-8-induced apoptosis in panel of tumor cells after DDX3 sRNAi oligo (ATPLite). Type of data set: cell-based. Conditions: including some spontaneous resistant cells; various concentrations of TRA-8 overnight. The procedure:
Cytotoxicity analysis of tumor cell susceptibility to TRA-8, 2E12, and TRAIL-mediated apoptosis. Cells (1,000 cells per well) were seeded into 96-well plates in triplicate with eight concentrations (double serial dilutions from 1000 ng/ml) of TRA-8, 2E12, or TRAIL. Cell viability was determined after overnight culture using an ATPLITE™ assay according to the manufacturer's instructions (Packard Instruments, Meriden, Conn.). The results are presented as the precentage of viable cells in treated wells compared to medium control wells.
They were then cloned into the BLOCK-iT U6 entry vector. The shRNA is driven by the U6 promoter and can be transiently expressed in most dividing or nondividing mammalian cell types. Resistant cells were transfected with RNAi used LIPOFECTAMINE 2000 (Invitrogen) for the RNAi response. The decreased DDX3 expression was determined by Western blot analysis using anti-DDX3 antibody 36 hours after transfection. Once decreased DDX3 expression was achieved, the siRNA oligo was synthesized (Target sequence: […] (SEQ ID NO:27): Sense RNA 5′-Fl-[…] (Fl-SEQ ID NO:27) (Fl=fluorescein); Anti-senseRNA 5′-[…]-3′ (SEQ ID NO:28), and RNAi control oligo (RI-010-DP) was purchased from Molecula (Columbia, Md.).

Data set [4] relates to DDX3 in panel of tumor cells. Briefly: DDX3 expression in panel of tumor cells after DDX3 sRNAi oligo (Western blot). The class given is cell-based. Particulars: 48 hours after transfection. From the text:
They were then cloned into the BLOCK-iT U6 entry vector. The shRNA is driven by the U6 promoter and can be transiently expressed in most dividing or nondividing mammalian cell types. Resistant cells were transfected with RNAi used LIPOFECTAMINE 2000 (Invitrogen) for the RNAi response. […] Once decreased DDX3 expression was achieved, the siRNA oligo was synthesized (Target sequence: […] (SEQ ID NO:27): Sense RNA 5′-Fl-[…] (Fl-SEQ ID NO:27) (Fl=fluorescein); Anti-senseRNA 5′-[…]-3′ (SEQ ID NO:28), and RNAi control oligo (RI-010-DP) was purchased from Molecula (Columbia, Md.).
(A western blot detects proteins with antibodies after separation by electrophoresis.)

The test system of data set [5] is caspase activation and PARP cleavage in MDA231 cells. The data set can be described thus: Western blot of caspase cascade activation in MDA231 cells. Type of data set: cell-based, human. Particulars: MDA-231 resistant cells, single agent alone at 4 hours (1,000 ng/ml TRA-8 or 1 μM Adriamycin). The procedure: Tumor cells (3×10^6) were washed twice with cold PBS and lysed with 300 μl lysis buffer containing 10 mM Tris-HCl (pH 7.6), 150 mM NaCl, 0.5 mM EDTA, 1 mM EGTA, 0.1% SDS, 1 mM sodium orthovanadate, and a mixture of protease inhibitors (1 mM phenylmethylsulfonyl fluoride, 1 μg/ml pepstatin A, 2 μg/ml aprotinin). Lysates were sonicated for 10 seconds, and centrifuged for 20 minutes at 12,000 g. The cell lysates with equal amount of total proteins were boiled for 5 minutes with SDS-PAGE sample buffer. Total cell lysates were separated in 8%, 10%, or 12% SDS-PAGE, and electrophoretically transferred to nitrocellulose membrane. The blots were blocked with 5% nonfat dry milk in TBST buffer (20 mM Tris-HCl (pH 7.4), 500 mM NaCl, and 0.1% Tween 20) and incubated with primary antibody in blocking buffer at 4° C. overnight. The blots were washed three times with TBST and probed with HRP-conjugated secondary antibodies for one hour at room temperature. After washing four times with TBST, the probed proteins were visualized using the ECL Western blotting detection system (Amersham Biosciences, Piscataway, N.J.) according to the manufacturer's instructions.

The next data set has as its target Cdk5/p35 (Homo sapiens, UniProt Q00535). Particulars: cited from earlier work.
The next data set relates to Cdk1/B. Conditions: cited from earlier work.
For data set [6], the system named is GSK-3. Conditions: cited from earlier work. The source holds these as a separate data set.

{Fl} = fluorescein label

Cdk5/p35, sequence (Q00535 whole entry, species assumed): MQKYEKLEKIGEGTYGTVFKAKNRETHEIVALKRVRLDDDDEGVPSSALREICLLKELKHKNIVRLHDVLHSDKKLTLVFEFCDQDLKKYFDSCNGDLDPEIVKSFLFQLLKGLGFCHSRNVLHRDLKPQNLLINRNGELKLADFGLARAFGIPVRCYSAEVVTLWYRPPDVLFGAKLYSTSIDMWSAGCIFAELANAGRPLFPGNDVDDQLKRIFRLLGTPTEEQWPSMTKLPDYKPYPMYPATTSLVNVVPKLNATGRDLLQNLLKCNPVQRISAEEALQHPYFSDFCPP
Cdk5/p35, sequence (Q15078 whole entry partner, species assumed): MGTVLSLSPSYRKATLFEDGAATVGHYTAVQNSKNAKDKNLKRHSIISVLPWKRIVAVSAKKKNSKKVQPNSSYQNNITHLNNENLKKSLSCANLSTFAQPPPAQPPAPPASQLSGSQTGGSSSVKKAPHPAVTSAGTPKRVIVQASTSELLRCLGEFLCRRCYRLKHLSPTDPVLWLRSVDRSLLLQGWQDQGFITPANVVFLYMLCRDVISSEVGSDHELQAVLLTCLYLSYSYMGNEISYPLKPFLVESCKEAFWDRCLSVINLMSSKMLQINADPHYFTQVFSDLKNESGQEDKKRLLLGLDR

As for `[Be+2]` [Beryllium ions], the “inhibition of GSK-3” value with GSK-3 [1] is “micromolar range”.
As to `N.N.[Cl][Pt][Cl]` [Cisplatin], the “TRA-8-mediated apoptosis of induced resistant cells in presence of chemotherapeutic agent” value (from here on “TRA-8-mediated apoptosis”) in [2] and in data set [3] was “TRA-8 dose-dependent response was restored” in each case.
For “TRAIL: Recombinant soluble TRAIL purchased from Alexis Biochemicals”, the “susceptibility of TRA-8 resistant cells to induced apoptosis” value in [2] (MDA-231R cells vs parental) and in data set [3] (UL-3CR cells vs parental) was “still susceptible” throughout. Moreover, the “susceptibility to apoptosis, in vitro cytotoxicity assay” value in data set [2] (parental MDA-231 cells) and in data set [3] (parental UL-3C cells) was “susceptible to apoptosis” each time.
Regarding “DDX3 RNAi: synthesized siRNA oligo, target sequence GGAGAAATTATCATGGGAAAC (SEQ ID NO:27), antisense SEQ ID NO:28 (sense GGAGAAAUUAUCAUGGGAAAC; antisense GUUUCCCAUGAUAAUUUCUCC; sense: RNA, 5' {Fl}, backbone not given here; antisense: RNA, backbone not given here)”, in the data set on panel of tumor cells, the TRA-8-induced apoptosis entry is on record as “enhanced the TRA8-induced apoptosis”. In addition, in [4], the “amount of endogenous DDX3” value is on record as “reduced the amount of endogenous DDX3”.
For `Cn1cc(C2=C(c3cn(CCCN)c4ccccc34)C(=O)NC2=O)c2ccccc21` [Bisindolymaleimide VIII], the “TRA-8-mediated apoptosis” value in data set [2] and in data set [3] was “TRA-8 dose-dependent response was restored” in each case.
Take `COc1cccc2c1C(=O)c1c(O)c3c(c(O)c1C2=O)C[C@@](O)(C(=O)CO)C[C@@H]3O[C@H]1C[C@H](N)[C@H](O)[C@H](C)O1` [Adriamycin]: the “TRA-8-mediated apoptosis” value in [2] and in data set [3] was “TRA-8 dose-dependent response was restored” in each case. For the same compound, in data set [5], the “activation of caspases 2, 3, 8, 9” value is “did not induce any significant activation”.
The IC50 is the concentration that inhibits the measured activity by half. As for `CCCCc1c(-c2ccc(OC)cc2)[nH]c2nccnc12` [Aloisine, 7-n-Butyl-6-(4-methoxyphenyl)[5H]pyrrolo[2,3-b]pyrazine], the values for the IC50 on Cdk5/p35, in the data set on GSK-3 [1] and with Cdk1/B were 1.5 µM, 0.92 µM and 0.7 µM, respectively.
For the compound `CC(=O)O[C@H]1C(=O)[C@@]2(C)[C@H]([C@H](OC(=O)c3ccccc3)[C@]3(O)C[C@H](OC(=O)[C@H](O)[C@@H](NC(=O)c4ccccc4)c4ccccc4)C(C)=C1C3(C)C)[C@]1(OC(C)=O)CO[C@@H]1C[C@@H]2O` [Taxol], the “TRA-8-mediated apoptosis” value in data set [2] and in [3] was “TRA-8 dose-dependent response was restored” in each case.
Consider `Cn1cc(C2=C(c3ccc(Cl)cc3Cl)C(=O)NC2=O)c2ccccc21` [SB216763], for which the “inhibition of GSK-3” value with GSK-3 [1] is on record as “potent”.
As to “insulin: comparator for decrease of GSK-3 activity”, the “decrease of GSK-3 activity” value in the data set with GSK-3 [6] was “approximately 50%”.
Regarding `CC(C)NCC(O)c1ccc(O)c(O)c1` (stereo not shown) [Isoproterenol], the “decrease of GSK-3 activity” value in the data set with GSK-3 [6] was “approximately 50%”.
